Counter-ions that a name gives are not always drawn. Like-named read-outs stand apart in the source and are kept apart here.

The subject of the assay is alkaline protease M3 from Streptomyces globisporus B-1829 strain (ATCC 21553). Kind of assay: Protease activity (casein hydrolysis) in the presence of additives. The format is biochemical.
Where [1] appears, read: additive 10^-3 M, protease activity, no additive = 100.

With `O=C1CCC(=O)N1Br` [NBS, N--Bromosuccinimide], the “Relative activity (%)” value is, setting by setting: under setting [1], 85%; (additive 10^-4 M, protease activity, no additive = 100) 0%. Moreover, for the setting “additive in an amount of 10^-4 M”, the “Inhibition of protease activity (in words)” value is “completely inhibited”. Turning to `NNC(N)=O` [Semicarbazide hydrochloride], the “Relative activity (%)” value came to 116%. In the case of `O=C(O)CI` [Iodoacetic acid], the “Effect by additive on activity (in words)” value is on record as “substantially not inhibited”, the “Inhibition of protease activity (in words)” value is listed as “substantially not inhibited” and the “Relative activity (%)” value is on record as 118%. For `NC(N)=S` [Thiourea], the “Relative activity (%)” value came out at 119%. On to `O=C(O)CCC(=O)O` [Succinic acid], for which, under setting [1], the “Relative activity (%)” value turned out to be 113%. Take `O=C1O[C@H]([C@@H](O)CO)C(O)=C1O` [L-Ascorbic acid]: the “Relative activity (%)” value under setting [1] was 110%.

(Values after patent publication US4364926A, “Novel alkaline protease M3 method for the preparation thereof and dental caries-prophylactic composition containing the same” (Dainippon Pharmaceutical Co., Ltd., priority 1980, dated 1982).)
